Assay results: US4719235A, “Methods and compositions for treating viral infection” (Kern; Gerald N., priority 1985, dated 1988)
Read-outs that look alike come from different tables or passages of the source.

Assays:
Adenovirus [1] = test: Titration of Adenovirus after contact with docusate sodium solutions (HeLa cells); type: cell-based; details: 0.2 mg/ml
Adenovirus [2] = test: Pretreatment of HeLa cells prior to exposure to Adenovirus; type: cell-based; details: 0.125 mg/ml in 10% fetal calf serum MEM
Method: HeLa cells were washed free of growth medium and the cells were exposed to 0.125 mg/ml docusate sodium in 10% fetal calf serum MEM for 15 minutes. The docusate sodium solution was poured off, the cells rinsed with phosphate buffered saline and then exposed to appropriately diluted Adenovirus. A control solution prepared as above except for exposure to docusate sodium was also provided. After one hour at 37° C., the cells were overlayed with agar and incubated for 3 days at 37° C. to allow plaques to develop.

[3] = test system: Respiratory Syncytial Virus; test: Pretreatment of HeLa cells prior to exposure to Respiratory Syncytial Virus; type: cell-based
Method: The same procedure was used for this example as was used for Example 21 except that HeLa cells were substituted for MA-104 cells, the docusate sodium solution contained 0.1 mg/ml of docusate sodium, and Respiratory Syncytial Virus was substantial for Rotavirus. Three experiments were run.
Virus infectivity was determined by cytopathic effects (CPE).

[4] = cited from earlier work
HeLa = test: Cytotoxicity in solutions containing serum, HeLa; type: cell-based, human; design: key to HeLa (Cytotoxic effect): 0: Cells have normal morphology; 4+: >90% of cells showed CTE.; ±c: less than 10% of cells showed CTE; details: 0.02 mg/ml, 2% fetal calf serum, 24 hours, 37° C.
Method: (§1) The cells were grown to confluency in 60×15 mm dishes. The cell monolayers were washed free of growth medium and 5 ml of serum-less growth medium containing docusate sodium at various concentrations was added. The curtures were incubated 24 hours at 37° C. and the cells then examined microscopically for cytotoxic effects (CTE). Controls were done in the same manner except that they were not exposed to docusate sodium.
(§2) The same procedure that was used for Example 17 was used for this Example except that the medium used for growing the cells contained 2% by volume fetal calf serum.

[5] = Cytotoxicity in solutions containing serum, HeLa; type: cell-based, human; design: key to HeLa (Cytotoxic effect): 0: Cells have normal morphology; 4+: >90% of cells showed CTE.; ±c: less than 10% of cells showed CTE; details: human, hela cells, 2% fetal calf serum, 37° C., read-out: HeLa (Cytotoxic effect)
Method: as §1, §2

Coxsackievirus B-5 = test: Pretreatment of MA-104 cells prior to exposure to Coxsackievirus B-5; type: cell-based
Influenza A virus = test: Inactivation of Influenza A virus (CPE on MDCK cells); type: cell-based
HSV-II = test: Duration of effect of pretreatment of MA-104 cells prior to exposure to HSV-II; type: cell-based, Herpes Simplex Type 2; details: 0.02 mg/ml; for inhibition at 20 µg/mL: Human alphaherpesvirus 2, MA104, read-out: % Reduction In Infectivity
Method: MA-104 cell monolayers were washed twice with Earle's basal salt solution (EBSS) and a 0.02 mg/ml solution of docusate sodium was added to each culture dish. The culture dishes were incubated at 37° C. for one hour and the docusate sodium solutions poured off. The monolayers were then washed twice with EBSS and at appropriate time intervals infected with HSV-II. After the addition of overlay agar, the cultures were incubated at 37° C. for 3 days, stained with crystal voilet, and the plaques counted. Control cultures were treated in a similar manner except for exposure to docusate sodium.

herpes virus = test: Recovery of herpes virus from a contaminated surface (glass slides; plaques on MA-104 cells); type: cell-based

With `CCCCC(CC)COC(=O)CC(C(=O)OCC(CC)CCCC)S(=O)(=O)O` (stereo not drawn) [docusate sodium, 1,4-bis(2-ethylhexyl)sodium sulfosuccinate] the “effect on Adenovirus replication (conclusion)” value (Adenovirus [1]; contact time 60 minutes) was “did not have a significant effect on Adenovirus replication”, the pfu/ml (Adenovirus [1]; exposure time 60 minutes (control 180,000)) was 150,000 pfu/ml and the killing at 200 µg/mL (Adenovirus [1]; unidentified adenovirus, HeLa, 1 h, exposure time 60 minutes, read-out: % Inactivation) was 17%. The plaque forming units/ml (Adenovirus [2]; pretreatment 15 minutes (control 180,000)) was 175,000 pfu/ml, the inhibition at 125 µg/mL (Adenovirus [2]; unidentified adenovirus, HeLa, 0.25 h, pretreatment 15 minutes, read-out: % decrease in pfu) was 3% and the “Presence of CPE” value [3] was “- and +”. For the same compound, the “protection of HeLa cells against RSV infection (conclusion)” value [3] was “confers partial protection on HeLa cells against RSV infection”, the solubility in alcohol ([4]; alcohol) was “freely soluble in alcohol” and the solubility in water ([4]; water) was “slowly soluble in water”. The “HeLa (Cytotoxic effect)” value (HeLa) was 0, the cytotoxicity at 24 h ([5]; 0.03 mg/ml) was less than 10% and the cytotoxicity at 24 h ([5]; 0.04 mg/ml) was greater than 90%. For the same compound, the “effect on plaque formation (infectivity) (conclusion)” value (Coxsackievirus B-5; 0.02 mg/ml, pretreatment) was “no effect on plaque formation (infectivity)”, the pfu/ml (Coxsackievirus B-5; .02 mg/ml, pretreatment 15 minutes (control 1,000,000)) was 1,800,000 pfu/ml and the “Presence of CPE” value (Influenza A virus) was “-”. For the same compound, the “inactivation of Influenza A virus (conclusion)” value (Influenza A virus) was “readily inactivated”, the pfu/ml (HSV-II; infection 0 hours after exposure (control 270,000)) was 53,000 pfu/ml and the pfu/ml (HSV-II; infection 2 hours after exposure (control 30,000)) was 14,000 pfu/ml. For the same compound, the pfu/ml (HSV-II; infection 24 hours after exposure (control 69,000)) was 69,000 pfu/ml, the pfu/ml (HSV-II; infection 72 hours after exposure (control 69,000)) was 58,000 pfu/ml and the “duration of anti-herpes effect of pretreatment (conclusion)” value (HSV-II; one hour pretreatment) was “transitory”. The inhibition at 20 µg/mL (HSV-II; infection 0 hours after exposure) was 81%, the inhibition at 20 µg/mL (HSV-II; infection 2 hours after exposure) was 54% and the inhibition at 20 µg/mL (HSV-II; infection 24 hours after exposure) was 0%. For the same compound, the inhibition at 20 µg/mL (HSV-II; infection 72 hours after exposure) was 16%, the plaque forming units (herpes virus; 0.4% in phosphate buffered saline (control 41,250; control smear 13,500)) was 0 plaque forming units and the “recovery of viruses (conclusion)” value (herpes virus; smears scrubbed off with 0.4% solution) was “no viruses were recovered”.
